In brackets after ≈: the same amount, converted by molar mass.

Holding throughout (assay): MIC, antibacterial activity (series dilution)
Assay type in all cases: cell-based

The test system of one experiment is Staph. 48N. As to conditions: 37° C., about 20 hours. On the procedure: (§1) The MIC values were determined with the aid of the microdilution method in BH medium. Each test substance was dissolved in the nutrient medium. A concentration series of the test substances was prepared in the microtiter plate by serial dilution. Overnight cultures of the pathogens, which were first diluted 1:250 in the nutrient medium, were used for the inoculation. 100 μl portions of inoculation solution were added to 100 μl of the dilute nutrient solutions containing the active compound. The microtiter plates were incubated at 37° C. and read off after about 20 hours. The MIC value (μg/ml) indicates the lowest concentration of active compound at which no growth was detectable. The minimum inhibitory concentrations (MIC) were determined by the series dilution method on Iso-Sensitest agar (Oxoid). A series of agar plates which contained concentrations of the active compound which decreased by two-fold dilution each time was prepared for each test substance. The agar plates were inoculated with a multipoint inoculator (Denley). Overnight cultures of the pathogens which had been diluted beforehand such that each inoculation point contained about 10^4 colony-forming particles were used for the inoculation. The inoculated agar plates were incubated at 37° C. and the germ growth was read off up to about 20 hours. The MIC value (μg/ml) indicates the lowest concentration of active compound at which no growth was detectable with the naked eye.

The subject of another experiment is Staph. 9TV. The conditions noted are these: 37° C., about 20 hours. Here is the method:
as §1

The subject of another experiment is E. coli Neumann. The conditions noted are these: Escherichia coli, 37° C., about 20 hours. On the procedure: as §1
The next experiment relates to Klebs. 57 USA. The conditions noted are these: 37° C., about 20 hours. Here is the method: as §1
The subject of another experiment is Staph 25701. The conditions noted are these: 37° C., about 20 hours. On the procedure: as §1
The subject of the next experiment is Staph. 133. The conditions noted are these: 37° C., about 20 hours. Here is the method: as §1
A further experiment relates to Psdm. Bonn. As to conditions: 37° C., about 20 hours. Here is the method: as §1

On to `CSc1nc2ccc(N3C[C@H](CNC(C)=O)OC3=O)cc2s1` [Example 24, (5S )-3-(2-Methylthio-benzo[4,5-d]thiazol-6-yl)-5-acetylaminomethyl-oxazolidin-2-one], for which the minimum inhibitory concentration (MIC) was 1 µg/mL (≈ 2.96 µM) in the experiment on Staph. 48N; 0.25 µg/mL (≈ 0.741 µM) in the experiment on Staph. 9TV; > 64 µg/mL against E. coli Neumann; > 64 µg/mL against Klebs. 57 USA; 0.25 µg/mL (≈ 0.741 µM) against Staph 25701; 2 µg/mL (≈ 5.93 µM) with Staph. 133. Besides, the minimum inhibitory concentration (MIC) against Psdm. Bonn was > 64 µg/mL.
For `CC(=O)NC[C@H]1CN(c2ccc3nc(C)oc3c2)C(=O)O1` [Example 25, (5S)-3-(2-Methyl-benzo[4,5-d]oxazol-6-yl)-5-acetamino-methyl-oxazolidin-2-one], the minimal inhibitory concentration (MIC) in the experiment on Staph. 48N is 1 µg/mL (≈ 3.46 µM); against Staph. 9TV, 1 µg/mL (≈ 3.46 µM); with E. coli Neumann, > 64 µg/mL; in the experiment with Klebs. 57 USA it was > 64 µg/mL; with Staph 25701, 1 µg/mL (≈ 3.46 µM); in the experiment on Staph. 133, 2 µg/mL (≈ 6.91 µM). In the experiment on Psdm. Bonn, the minimum inhibitory concentration (MIC) was > 64 µg/mL.
`CC(=O)NC[C@H]1CN(c2ccc3nc(C)sc3c2)C(=O)O1` [Example 26]: the MIC with Staph. 48N is 1 µg/mL (≈ 3.27 µM); against Staph. 9TV it was 1 µg/mL (≈ 3.27 µM); in the experiment on E. coli Neumann, > 64 µg/mL; against Klebs. 57 USA it was > 64 µg/mL; against Staph 25701, 1 µg/mL (≈ 3.27 µM); against Staph. 133, 2 µg/mL (≈ 6.55 µM). Also, in the experiment with Psdm. Bonn, the MIC is > 64 µg/mL.
For the compound `CC(=O)NC[C@H]1CN(c2ccc3nc([S+](C)[O-])sc3c2)C(=O)O1` (stereo partly drawn) [Example 32, (5S)-3-(2-Methylsulphinyl-benzo[4,5-d]-thiazol-6-yl)-5-acetylaminomethyl-oxazolidin-2-one], the MIC against Staph. 48N is 2 µg/mL (≈ 5.66 µM); in the experiment with Staph. 9TV, 0.5 µg/mL (≈ 1.41 µM); in the experiment on E. coli Neumann, > 64 µg/mL; against Klebs. 57 USA it was > 64 µg/mL; against Staph 25701, 1 µg/mL (≈ 2.83 µM); with Staph. 133, 1 µg/mL (≈ 2.83 µM). In the experiment on Psdm. Bonn, the minimum inhibitory concentration (MIC) was > 64 µg/mL.
For the compound `CC(=O)NC[C@H]1CN(c2ccc3nc(S(=O)(=O)Cc4ccccc4)sc3c2)C(=O)O1` [Example 33, (5S)-3-(2-Benzylsulphonyl-benzo[4,5-d]thiazol-6-yl)-5-acetylaminomethyloxazolidin-2-one], the MIC against Staph. 48N is 2 µg/mL (≈ 4.49 µM); with Staph. 9TV, 4 µg/mL (≈ 8.98 µM); against E. coli Neumann, > 64 µg/mL; against Klebs. 57 USA, > 64 µg/mL; against Staph 25701, 2 µg/mL (≈ 4.49 µM); against Staph. 133, 4 µg/mL (≈ 8.98 µM). The MIC against Psdm. Bonn was > 64 µg/mL.
Take `CC(=O)NC[C@H]1CN(c2ccc3nc([S+]([O-])Cc4ccccc4)sc3c2)C(=O)O1` (stereo partly shown) [Example 36]: the minimal inhibitory concentration (MIC) is 4 µg/mL (≈ 9.31 µM) against Staph. 48N; 2 µg/mL (≈ 4.66 µM) against Staph. 9TV; > 64 µg/mL with E. coli Neumann; > 64 µg/mL against Klebs. 57 USA; 4 µg/mL (≈ 9.31 µM) with Staph 25701; 4 µg/mL (≈ 9.31 µM) in the experiment with Staph. 133. Also, the MIC in the experiment with Psdm. Bonn was > 64 µg/mL.
Take `CC(=O)NC[C@H]1CN(c2ccc3nc(S(C)(=O)=O)sc3c2)C(=O)O1` [Example 37]: the minimal inhibitory concentration (MIC) in the experiment with Staph. 48N is 2 µg/mL (≈ 5.41 µM); against Staph. 9TV, 1 µg/mL (≈ 2.71 µM); against E. coli Neumann, > 64 µg/mL; with Klebs. 57 USA, > 64 µg/mL; with Staph 25701 it was 1 µg/mL (≈ 2.71 µM); against Staph. 133 it was 2 µg/mL (≈ 5.41 µM). In the experiment on Psdm. Bonn, the minimal inhibitory concentration (MIC) is > 64 µg/mL.

The term MIC denotes the lowest concentration that inhibits growth of the organism. Read a low MIC as greater potency.

The values above are taken from patent publication US5529998A, “Benzoxazolyl- and benzothiazolyloxazolidinones” (Bayer Aktiengesellschaft, priority 1994, dated 1996).
